What was measured:
BAE cells = experiment: BrdU incorporation assay; format: cell-based, bovine; details: LIF 48 hours
Method: BAE cells were plated at the density of 2×10^4 cells/well with 1 ml of culture medium (DMEM-low glucose plus 10% BCS) in a 12-well plate with a 18-mm poly-D-lysine-treated coverslip in each well, incubating at 37° C. overnight. After removal of culture medium, cells were incubated in 0.5 ml of DMEM-low glucose plus 1% BCS. LIF (10 ng/ml) and vehicle control (0.1% BSA in PBS) were added to the cells. Upon LIF treatment for 48 hours, cells were subjected to BrdU incorporation by adding 2.5 μl of 2 mM BrdU in DMSO to each well to a final concentration 10 μM and incubating for 4 hours. Then, cells are subjected to BrdU immunofluorescence staining using an antibody against BrdU conjugated with Fluor alexa-488 (Biolegend, CAT #364106, 1:400). Briefly, BrdU labeling medium was removed from the culture plates and cells were fixed with 3.7% formaldehyde in PBS at room temperature for 15 minutes. Cell DNAs were denatured with 1N HCl on ice for 10 minutes and 2N HCl at room temperature for 10 minutes following cell permeabilization with 0.1% Triton X-100 in PBS (PBST). […] Four fields were randomly selected for each sample and the BrdU-positive nuclei as well as total nuclei (DAPI-positive) were counted manually; the percentages of BrdU-positive cells were determined by dividing the numbers of BrdU-positive nuclei with the numbers of total nuclei. […]

guinea pig skin = experiment: Vessel permeability in guinea pig skin (Evans blue); format: in vivo; details: intradermal 1, 5, 25, 100, 200 ng per injection site
Method: In FIG. 5A, Hairless male guinea pigs (Crl: HA-Hrhr/IAF, 450-500 g, Charles River Laboratories) were anesthetized by intraperitoneal (i.p.) administration of xylazine (5 mg/kg) and ketamine (75 mg/kg). The animals then received an intravenous injection (penile vein) of 1 ml of 1% Evans blue dye. After 15 min, intradermal injections (0.05 ml/per site) of different doses (1, 5, 25, 100, 200 ng per injection site) of rhLIF in PBS were administrated into the area of trunk posterior to the shoulder. 0.05 ml of PBS and 25 ng of VEGF in 0.05 ml of PBS were injected as negative and positive controls. 30 min after the intradermal injections, animals were euthanized by i.p. injection of pentobarbital (200 mg/kg). Skin tissues were dissected from the connective tissues and photographed, n=2. In FIG. 5B, Vascular leakage is shown in mouse retina. LIF (10 ng) or VEGF (100 ng) was injected in the vitreous cavity (0.1% BSA/PBS as control). TRITC-dextran was used to indicate the vascular leakage. Retinal vasculature was labeled by FITC-lectin, n=5.

[1] = tested on: human retinal microvascular endothelial (HRME) cells; experiment: HRME endothelial cell proliferation assay (alamar blue); format: cell-based
Method: The bovine endothelial proliferation assays were performed essentially as previously described (63, 64). BCE (1×10^3 cells/well) or BRE (5×10^2 cells/well) cells were seeded in 96-well plates in the culture medium (DMEM-low glucose supplemented with 10% BCS, 2 mM glutamine and antibiotics) plus testing materials with a total volume of 200 μl per well. BAE cells were plated in 96-well plates at a density of 2×10^3 cells in the culture medium (DMEM-low glucose supplemented with 1% BCS and antibiotics) plus testing material with a total volume of 200 μl per well. HRME cells were seeded at a density of 1×10^3 cells/well in gelatin-coated 96-well plates in assay medium (DMEM-low glucose supplemented with 20% FBS and antibiotics) plus testing materials to make a total volume 200 μl per well. For assays involving antibodies or small-molecule inhibitors, inhibitors or vehicle controls were first added and then test materials were added one hour later. After 6 days (unless otherwise specified), cells were incubated with alamar blue for 4 h. Fluorescence was measured at 530 nm excitation wavelength and 590 nm emission wavelength. Each experiment was carried out in duplicate/triplicate and repeated at least three times.

What does the source list for “LIF: recombinant human leukemia inhibitory factor, a member of the IL-6 family of cytokines”?
BrdU incorporation compared to the vehicle control (BAE cells): significantly reduced; vascular permeability in guinea pig skin (guinea pig skin): does not induce vascular permeability; effect on VEGF-stimulated growth of human retinal microvascular endothelial cells ([1]; LIF added to VEGF): significantly enhanced VEGF-stimulated growth; mitogenic response in human retinal microvascular endothelial cells ([1]; LIF alone): did not elicit a strong mitogenic response

Reference: patent publication US20220105157A1, “Compositions and Methods for Promoting Angiogenesis in the Eye” (The Regents of the University of California, priority 2019, published 2022)
